# Laboratory results: patent publication US5480905A, “Benzodioxane derivatives” (Chugai Seiyaku Kabushiki Kaisha, priority 1991, dated 1996)
# Entries after “also recorded” stand apart in the source; their conditions may differ.
# Tests used:
# [1] = system: S.D. line male rats; assay: Antidepressant effect, compelled swim test (Porsolt), time over which rats remain motionless; assay type: in vivo, rat; settings: peroral 20 mg/kg; for inhibition in vivo at 20 mg/kg: Rattus norvegicus, po, 0.5 h, 30 min before swim, read-out: Antidepressant effect, Efficacy
# Description: An antidepression test was conducted in accordance with the method of Porsolt et al. (Europ. J. Pharmacol., 47, 379-391, 1978). Stated more specifically, 7-wk old S.D. line male rats were placed in a glass cylinder (18 cm^.phi. ×40 cm^H) for 15 min. The cylinder was filled with water (25° C.) to a depth of 15 cm. Thereafter, the rats were placed in a hot environment (32° C.) for 15 min before they were returned to the cage. Twenty-four hours later, the rats were compelled again to swim in the same cylinder for 5 min and the total time over which the rats remained motionless was measured. A test drug was administered perorally to each animal 30 min before it was compelled to swim for 5 min. Antidepressant agents are known to be capable of specifically reducing the time over which the rats would remain motionless (Psyehopharmaeol., 83, 1-16, 1984, and ibid., 94, 147-160, 1988). The antidepressant effect was calculated by the following formula: [formula]
# (§1) The procedure of Test Examples 2 and 3 were repeated except that test compounds were administered perorally in a dose of 10 mg/kg.
# (§2) The procedures of Test Example 2 and 3 were repeated, except that test compounds were administered perorally in a dose of 20 mg/kg to check the longevity of their antianxiety and antidepressant effects for 0.5, 2 and 4 h.
# [2] = system: S.D. line male rats; assay: Antianxiety effect, water drinking under punishment (Vogel); assay type: in vivo, rat; design: Antianxiety effect / Antianxiety effect, longevity: unit not given here; settings: peroral 20 mg/kg; for change in vivo at 20 mg/kg: Rattus norvegicus, po, read-out: Antianxiety effect, Efficacy
# Description: Antianxiety test was conducted in accordance with a method adapted from the method of Vogel et al. (Psychopharmacol., 21, 1-7, 1971). Stated more specifically, S.D. line male rats weighing 250-300 g were entirely kept from water for 24 h and then placed in a concrete experimental box. […] The bottom of the box was made of a stainless steel grid, from which electric shock (0.2 mA, 0.5 sec) could be applied to the limbs of rats. The test schedule was as follows: first, the rats were acclimatized to the experimental box and trained for drinking water; this was done for 3 min without electric shock. The quantity of water drunk by the rats was then measured (under non-punishment). Then, the rats were kept from drinking water for 24 h. Thereafter, the quantity of water drunk by each rat was measured (before administration of test compound) under such conditions that an electric shock was applied each time a rat drank one water drop (under punishment).Thirty minutes later, a test drug was administered perorally and after an additional 20 min, the quantity of water drunk by each rat was again measured under punishment (after administration of test compound). The quantity of water drunk by rats will decrease under punishment but it is known that the initial level can be restored by administering an antianxiety agent.
# The antianxiety effect of a test compound was calculated by the following formula: [formula]
# as §1, §2
# [3] = system: apomorphine induced stereotypic behavior; assay: Antidopamine action, apomorphine induced stereotypic behavior; assay type: in vivo, rat; settings: for Apomorphine Induced Stereotypic Behavior, sum of scores: maximum of 24
# Description: Seven-week old male S.D. line rats were administered a test drug perorally and after the passage of 30 min, the dopamine agonist apomorphine was injected subcutaneously in an amount of 0.5 mg/kg. For the subsequent 5-30 min period, the intensity of stereotypic behavior that was induced in the rats by apomorphine was measured six times at 5-min intervals by a scoring method and the sum of the scores was determined (for a maximum of 24).
# [4] = in vivo; cited from earlier work
# [5] = system: intracerebral serotonin 2 receptor; settings: continuous administration; cited from earlier work
# [6] = target: T1, serotonin 1A receptor (Rattus norvegicus, UniProt P19327); assay: Serotonin 1A receptor binding experiment (3H-8-OH-DPAT); settings: rat cortex and hippocampal tissue; 0.5 nM 3H-8-OH-DPAT; IC50 in M; read-out: -logIC50 5-HT1A (converted)
# T1 construct: the cortex and hippocampal tissue were extracted from the brain; from tissue; host or cells: brain cortex and hippocampus of 7-week-old male S.D. rats, washed membrane homogenate
# T1 sequence (P19327 1-422): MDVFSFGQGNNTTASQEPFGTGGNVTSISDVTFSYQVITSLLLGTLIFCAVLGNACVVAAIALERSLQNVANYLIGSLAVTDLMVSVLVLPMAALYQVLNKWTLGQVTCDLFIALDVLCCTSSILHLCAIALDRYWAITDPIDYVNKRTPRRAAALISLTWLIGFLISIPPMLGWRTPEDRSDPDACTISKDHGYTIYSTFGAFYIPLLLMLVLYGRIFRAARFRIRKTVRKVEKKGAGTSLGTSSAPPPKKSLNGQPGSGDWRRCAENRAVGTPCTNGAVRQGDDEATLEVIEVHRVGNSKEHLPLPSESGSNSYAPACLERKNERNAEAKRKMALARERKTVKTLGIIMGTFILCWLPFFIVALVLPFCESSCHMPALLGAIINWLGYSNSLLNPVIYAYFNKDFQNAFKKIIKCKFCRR
# Description: (§3) Affinity for intracerebral serotonin 1A and serotonin 2 receptor was checked in accordance with the method of Hall et al. (J. Neurochem., 44, 1685-1695, 1985) and the method of Leysen et al. (Mol. Pharmacol., 21, 301-314, 1982).
# (§4) Stated more specifically, the cortex and hippocampal tissue were extracted from the brain of 7-wk old S.D. line male rats, mixed with 20 volumes of Tris-HCl buffer (50 mM, pH 7.7) and homogenized with a Teflon homogenizer. Thereafter, the homogenate was centrifuged at 39800×g for 20 min and the supernatant was discarded. Forty volumes of a buffer were added to the precipitate and the mixture was homogenized with a Polytron homogenizer, with the homogenate being centrifuged under the same condition as set forth above. The same procedure was repeated two more times and the final precipitate was homogenized with 40 volumes of a buffer; thereafter, the homogenate was stored at least overnight at -80° C. On the day when binding experiments were to be conducted, the homogenate was thawed at room temperature and incubated at 37° C. for 20 min to remove the endogenous serotonin.
# (§5) Thereafter, centrifugation was conducted at 39800×g for 20 min and 40 volumes of a buffer were added to the precipitate, followed by homogenization. This procedure was repeated three times; to the final precipitate, a buffer was added in 65 volumes for the case of serotonin 1A receptor and in 80 volumes for the case of serotonin 2 receptor and the mixture was homogenized in preparation for the binding experiments that are described below. All procedures of experimentation except storage in a frozen state and thawing at room temperature were conducted at 4° C. or below.
# A reaction solution containing 0.5 nM (final concentration) of 3H-8-hydroxy-2-(di-n-propylamino)tetralin (8-OH-DPAT), […] and 500 μl of brain homogenate in 1.0 ml (final volume) of a buffer was incubated at 25° C. for 30 min. Thereafter, the reaction solution was filtered by rapid passage through a glass filler. The filter was washed rapidly with an ice-cooled buffer (3 ml) three times, put into a scintillation vial together with a scintillation cocktail, and left to stand overnight at 4° C. On the next day, the vial was agitated well and measurements were conducted with a scintillation counter. To determine the amount of specific binding, the amount of binding in the presence of excess unlabeled serotonin (10 μM) was subtracted from the total amount of binding. As an index for the affinity of a test compound for either receptor, the concentration at which the specific binding of ^3 H-DPAT was inhibited by 50% (IC50, M) was determined using computer software EBDA/LIGAND (Biosoft).
# [7] = target: T2, serotonin 2 receptor (Rattus norvegicus, UniProt P14842); assay: Serotonin 2 receptor binding experiment (3H-ketancerine); settings: rat cortex and hippocampal tissue; 0.5 nM 3H-ketancerine; IC50 in M; read-out: -logIC50 5-HT2 (converted)
# T2 construct: the cortex and hippocampal tissue were extracted from the brain; from tissue; host or cells: brain cortex and hippocampus of 7-week-old male S.D. rats, washed membrane homogenate
# Description: as §3, §4, §5
# A reaction solution containing 0.5 nM (final concentration) of ^3 H-ketancerine and 500 μl of brain homogenate in 1.0 ml (final volume) of a buffer was incubated at 30° C. for 30 min. Subsequent procedures were the same as in the serotonin 1A receptor binding experiment and IC50 (M) was determined accordingly. To determine the amount of specific binding, the amount of binding in the presence of excess unlabelled methysergide ([…]) was subtracted from the total amount of binding.
# [8] = system: S.D. line male rats; assay: Sedative action, amount of spontaneous movement (Animex); assay type: in vivo, rat; settings: for Amount of Spontaneous Movement: control 405.2 ± 47.7
# Description: Seven-week old male S.D. line rats were administered a test drug perorally and after the passage of 30 min, the amount of spontaneous movement of the rats was measured for 10 min by means of Animex.
# T2 sequence (P14842 whole entry): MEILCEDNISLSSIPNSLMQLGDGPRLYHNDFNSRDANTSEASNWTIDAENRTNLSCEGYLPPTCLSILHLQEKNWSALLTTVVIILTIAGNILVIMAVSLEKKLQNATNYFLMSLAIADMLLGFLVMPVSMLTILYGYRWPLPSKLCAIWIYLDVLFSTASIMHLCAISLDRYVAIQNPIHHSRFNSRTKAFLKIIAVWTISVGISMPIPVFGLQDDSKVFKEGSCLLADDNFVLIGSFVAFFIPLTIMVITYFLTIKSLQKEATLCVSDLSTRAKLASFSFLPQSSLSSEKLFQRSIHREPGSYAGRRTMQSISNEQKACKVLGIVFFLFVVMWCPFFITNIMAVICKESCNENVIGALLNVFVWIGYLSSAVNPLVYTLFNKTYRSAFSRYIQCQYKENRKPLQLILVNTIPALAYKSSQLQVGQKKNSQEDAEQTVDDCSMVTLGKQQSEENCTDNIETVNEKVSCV
smiles,measurement,setting,value
O=C1CC2(CCCC2)CC(=O)N1CCCCN1CCN(c2ncccn2)CC1 [Buspirone],inhibition in vivo at 20 mg/kg,[1],-25.2 ± 3.9%
same,change in vivo at 20 mg/kg,[2],37.5 ± 4.7%
same,"Apomorphine Induced Stereotypic Behavior, sum of scores","[3]; 10 mg/kg peroral, control 14.4 ± 0.9",10.3
same,"Apomorphine Induced Stereotypic Behavior, sum of scores","[3]; 20 mg/kg peroral, control 14.4 ± 0.9 (Comp. 1: 16.0 ± 1.1)",0.7
same,"Apomorphine Induced Stereotypic Behavior, sum of scores","[3]; 40 mg/kg peroral, control 14.4 ± 0.9",0.2
same,Antidopamine action,"[3]; peroral, apomorphine 0.5 mg/kg s.c.",stereotypic behavior induced by apomorphine was intensely compelled
CC1(C)CC(=O)N(CCCCN2CCN(c3ncccn3)CC2)C(=O)C1 [Gepirone],"Antianxiety/antidepressant action (words, background)",[4],only weak antidepressant and antianxiety effects; also recorded: both antianxiety and antidepressant effects
same,"Side effects (words, background)",[4],either lower ultromotivity (probably due to the dopamine antagonistic action) or serotonin syndrome
O=C1c2ccccc2S(=O)(=O)N1CCCCN1CCN(c2ncccn2)CC1 [Ipsapirone],"Antianxiety/antidepressant action (words, background)",[4],only weak antidepressant and antianxiety effects; also recorded: both antianxiety and antidepressant effects
same,"Side effects (words, background)",[4],either lower ultromotivity (probably due to the dopamine antagonistic action) or serotonin syndrome
same,"intracerebral serotonin 2 receptor (words, background)",[5],decrease in the intracerebral serotonin 2 receptor
"O=C1CC2(CCCC2)CC(=O)N1CCNCC1COc2ccccc2O1 (centres unmarked) [MDL-73005, reference compound]",IC50,[6],36.3 nM
same,IC50,[7],> 1000 nM
same,inhibition in vivo at 20 mg/kg,[1],28.3 ± 10.9%
same,Antidepressant effect,[1],extremely weak antidepressant effect
same,change in vivo at 20 mg/kg,[2],67.6 ± 5.5%
same,"Antianxiety effect, longevity",[2]; 0.5 h after administration,44.9
same,"Antianxiety effect, longevity",[2]; 2.0 h after administration,17.0
same,"Antianxiety effect, longevity",[2]; 4.0 h after administration,8.1
same,Amount of Spontaneous Movement,[8]; 20 mg/kg peroral,395.8 Counts/10 min
same,Amount of Spontaneous Movement,[8]; 40 mg/kg peroral,331.5 Counts/10 min
same,Amount of Spontaneous Movement,[8]; 60 mg/kg peroral,335.0 Counts/10 min
same,Sedative action / spontaneous movement,[8]; peroral 20-60 mg/kg,no appreciable sedative action
